Assay results reported in patent US20250339514A1, “SINGLE-AND MULTI-EPITOPE PEPTIDE AND MRNA VACCINES TO GENERATE TOLEROGENIC EFFECTS FOR ALLERGIC AND AUTOIMMUNE DISEASE BY TARGETING LIVER SINUSOIDAL ENDOTHELIAL CELLS” (The Regents of the University of California, priority 2022, published 2025).
Read-outs that look alike come from different tables or passages of the source.

Key:
[1] = Cargo loading and ApoBP ligand content by microBCA / BCA assay; type: physicochemical
Method: The relative abundance of mannan incorporation was assessed by calculating the difference between the total amount offered for conjugation versus the amount recovered in the supernatant. […] The abundance of peptide conjugation was assessed by a microBCA assay and a nanodrop method.
The purified NPs were fully characterized using dynamic light scattering to determine particle size and surface charge, and scanning electron microscopy was performed to visualize particle morphology. The microBCA assay was used to detect OVA loading capacity and the conjugation efficiency of the peptide ligand, whereas the phenol-sulfuric acid method was used to determine mannan concentration. The endotoxin level was verified by a chromogenic LAL assay.
Particles were separated and washed by centrifugation (15,000 g, 10 min). Hydrodynamic size and surface potential were measured using dynamic light scattering (DLS), with visualization of the particle size and morphology by scanning electron microscopy (SEM). […] In addition to loading of T-cell epitopes, we also selected an IgE binding peptide for encapsulation, in addition to the synthesis of nanoparticles that incorporate CPPE as well as a purified Ara h2 protein (Indoor Biotechnologies). The CPPE was prepared as described in the Online Repository section. Allergen loading capacity, including for CPPE, purified Ara h2 and its epitopes, as well as the conjugation efficacy of the ApoB ligand was determined by bicinchoninic acid assay (BCA assay).

[2] = ionizable lipid; cited from earlier work
factor VII = conditions: cited from earlier work
I-Ek = conditions: cited from earlier work; for SYFPEITHI score: I-Ek; for Score (antigenic score predicted): MHC II H2-E^k
T cell responses = test system: T cell responses; parameters: Immunopositivity of predicted CTL epitope / Immunopositivity of MHC II peptide: scale not given here; conditions: cited from earlier work; for Immunopositivity of predicted CTL epitope: class I MHC peptides, Table 59; for Immunopositivity of MHC II peptide: MHC II peptides, Table 60
[3] = test system: class I MHC K, D, and L loci; conditions: cited from earlier work; for predicted binding to the H2-Ld locus: SYFPEITHI and BIMAS
H2-A^k = H2-A^k (Mus musculus, UniProt P01910+P06343); conditions: MHC II H2-A^k; cited from earlier work
[4] = peptide in PLGA nanoparticles, Table 66
[5] = H2 locus K, haplotype d (9-mer)
[6] = H2 locus K, haplotype k (9-mer)
[7] = H2 locus D, haplotype b (9-mer)

H2-A^k, sequence (P01910 24-256): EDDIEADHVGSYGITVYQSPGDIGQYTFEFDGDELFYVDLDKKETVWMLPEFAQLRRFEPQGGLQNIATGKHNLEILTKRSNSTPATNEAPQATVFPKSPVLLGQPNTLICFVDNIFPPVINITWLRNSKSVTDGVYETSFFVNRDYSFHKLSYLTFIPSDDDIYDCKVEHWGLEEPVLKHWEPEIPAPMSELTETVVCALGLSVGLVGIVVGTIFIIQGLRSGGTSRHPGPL
H2-A^k, sequence (P06343 28-263): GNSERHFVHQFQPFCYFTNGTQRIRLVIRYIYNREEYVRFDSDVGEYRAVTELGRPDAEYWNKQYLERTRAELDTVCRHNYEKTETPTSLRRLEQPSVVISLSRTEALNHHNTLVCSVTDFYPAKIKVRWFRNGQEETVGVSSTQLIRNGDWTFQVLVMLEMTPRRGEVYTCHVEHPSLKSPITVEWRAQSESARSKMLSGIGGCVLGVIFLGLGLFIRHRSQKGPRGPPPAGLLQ

Molecule: 1 (LALFLLAAHASARQQ; listed as Arachis hypogaea) [compound 1]
- Loading Capacity ([1]; epitope in PLGA NPs, Table 68): 1.62 + 2.11 μg/mg

Molecule: 1,2-dioleoyl-3-dimethylaminopropane [DODAP]
- pKa [2]: 6.6

Molecule: 2 (LRNLPQQCGLRAPQR; listed as Arachis hypogaea) [compound 2]
- Loading Capacity ([1]; epitope in PLGA NPs, Table 68): 3.22 ± 1.96 µg/mg

Molecule: 3 (MAKLTILVALALFLL; listed as Arachis hypogaea) [compound 3]
- Loading Capacity ([1]; epitope in PLGA NPs, Table 68): 1.31 + 1.72 μg/mg

Molecule: 4 (SYGRDPYSPSQDPYS; listed as Arachis hypogaea) [compound 4]
- Loading Capacity ([1]; epitope in PLGA NPs, Table 68): 8.68 ± 2.04 µg/mg

Molecule: CCCCC/C=C\C/C=C\CCCCCCCCC1(CCCCCCCC/C=C\C/C=C\CCCCC)OCC(CN(C)C)O1 (centres unmarked) [DLin-K-DMA, 2,2-dilinoleyl-4-dimethylaminomethyl-[1,3]-dioxolane]
- potency on the in vivo silencing of factor VII (factor VII; higher than the other tested lipids): 2.5 fold

Molecule: CCCCC/C=C\C/C=C\CCCCCCCCC1(CCCCCCCC/C=C\C/C=C\CCCCC)OCC(CCN(C)C)O1 (centres unmarked) [DLin-KC2-DMA, 2,2-dilinoleyl-4-(2-dimethylaminoethyl)-[1,3]-dioxolane]
- activity (factor VII; higher activity over DLin-K-DMA): 4 fold

Molecule: CCCCC/C=C\C/C=C\CCCCCCCCC(CCCCCCCC/C=C\C/C=C\CCCCC)OC(=O)CCCN(C)C [DLin-MC3-DMA, (6Z,9Z,28Z,31Z)-heptatriaconta-6,9,28,31-tetraen-19-yl-4-(dimethylamino) butanoate]
- pKa [2]: 6.44
- potency (factor VII; higher potency than DLin-KC2-DMA): 10 fold

Molecule: CCCCC/C=C\C/C=C\CCCCCCCCC(O)(CCCCCCCC/C=C\C/C=C\CCCCC)CCCCN(C)C [YSK012-C4]
- pKa [2]: 8.0

Molecule: #1 (LALFLLAAHASARQQ; listed as Arachis hypogaea)
- Loading Capacity [1, 4]: 1.62 + 2.11

Molecule: #2 (LRNLPQQCGLRAPQR; listed as Arachis hypogaea)
- Loading Capacity [1, 4]: 3.22 + 1.96

Molecule: #3 (MAKLTILVALALFLL; listed as Arachis hypogaea)
- Loading Capacity [1, 4]: 1.31 + 1.72

Molecule: #4 (SYGRDPYSPSQDPYS; listed as Arachis hypogaea)
- Loading Capacity [1, 4]: 8.68 + 2.04

Molecule: LEPLGLVEEGAKTAP [AAV8-VP3 aa 126-140, reference compound]
- SYFPEITHI score (I-Ek): 28
- Th1 response (T cell responses; C3H mice): strong H2k MHC II-restricted Th1 response

Molecule: NSYVTPICIADKEYT [hF.IX aa 328-342, reference compound]
- SYFPEITHI score (I-Ek): 24

Molecule: QPARKRLNF [AAV8 capsid aa 166-174, reference compound]
- predicted binding to the H2-Ld locus [3]: high-scoring

Molecule: QVSVEIEWELQKENS [AAV2-VP3 475-489, reference compound]
- SYFPEITHI score (I-Ek): 22
- Th2 response (T cell responses; C3H mice): strong Th2 response

Molecule: SEQ ID NO: 1115 (QYGSVSTNL; listed as Arachis hypogaea)
- BIM score predicted using the BIMAS program [3, 5]: 4147
- SYF score predicted using the SYFPEITHI program [3, 5]: 27
- Immunopositivity of predicted CTL epitope (T cell responses): QYGSVSTNL^c

Molecule: SEQ ID NO: 1121 (LDRLMNPLI; listed as Arachis hypogaea)
- SYF score predicted using the SYFPEITHI program [3, 6]: 20
- Immunopositivity of predicted CTL epitope (T cell responses): LDRLMNPLI^e

Molecule: SEQ ID NO: 1122 (EEIRTTNPV; listed as Arachis hypogaea)
- BIM score predicted using the BIMAS program [3, 6]: 100
- SYF score predicted using the SYFPEITHI program [3, 6]: 20
- Immunopositivity of predicted CTL epitope (T cell responses): EEIRTTNPY^e

Molecule: SEQ ID NO: 1124 (TADVNTQGV; listed as Arachis hypogaea)
- BIM score predicted using the BIMAS program [3, 7]: 3.4
- SYF score predicted using the SYFPEITHI program [3, 7]: 23
- Immunopositivity of predicted CTL epitope (T cell responses): TADVNTQGV^e

Molecule: SEQ ID NO: 1133 (KYLGPFNGL; listed as Arachis hypogaea)
- BIM score predicted using the BIMAS program [3, 5]: 6912
- SYF score predicted using the SYFPEITHI program [3, 5]: 27
- Immunopositivity of predicted CTL epitope (T cell responses): KYLGPFNGL^c

Molecule: SEQ ID NO: 1134 (EYGIVADNLD; listed as Arachis hypogaea)
- BIM score predicted using the BIMAS program [3, 5]: 2400
- SYF score predicted using the SYFPEITHI program [3, 5]: 23
- Immunopositivity of predicted CTL epitope (T cell responses): EYGIVADNL^d

Molecule: SEQ ID NO: 1140 (LDRLMNPLI; listed as Arachis hypogaea)
- BIM score predicted using the BIMAS program [3, 6]: 100
- SYF score predicted using the SYFPEITHI program [3, 6]: 20
- Immunopositivity of predicted CTL epitope (T cell responses): LDRLMNPLI^e

Molecule: SEQ ID NO: 1141 (EEIKTTNPV; listed as Arachis hypogaea)
- BIM score predicted using the BIMAS program [3, 6]: 100
- SYF score predicted using the SYFPEITHI program [3, 6]: 20
- Immunopositivity of predicted CTL epitope (T cell responses): EEIKTTNPV^e

Molecule: SEQ ID NO: 1151 (KYNHDIALL; listed as Arachis hypogaea)
- BIM score predicted using the BIMAS program [3, 5]: 3456
- SYF score predicted using the SYFPEITHI program [3, 5]: 24
- Immunopositivity of predicted CTL epitope (T cell responses): KYNHDIALL^c

Molecule: SEQ ID NO: 1152 (GYVSGWGRVD; listed as Arachis hypogaea)
- BIM score predicted using the BIMAS program [3, 5]: 1440
- SYF score predicted using the SYFPEITHI program [3, 5]: 22
- Immunopositivity of predicted CTL epitope (T cell responses): GYVSGWGRV^d

Molecule: SEQ ID NO: 1160 (GSIVNEKWID; listed as Arachis hypogaea)
- BIM score predicted using the BIMAS program [3, 7]: 936
- SYF score predicted using the SYFPEITHI program [3, 7]: 26
- Immunopositivity of predicted CTL epitope (T cell responses): GSIVNEKWI^d

Molecule: SEQ ID NO: 1161 (LDHENANKI; listed as Arachis hypogaea)
- BIM score predicted using the BIMAS program [3, 7]: 240
- SYF score predicted using the SYFPEITHI program [3, 7]: 23
- Immunopositivity of predicted CTL epitope (T cell responses): LDHENANKI^e

Molecule: SEQ ID NO: 1170 (QVSVEIEWELQKENS; listed as Arachis hypogaea)
- Score (antigenic score predicted) (I-Ek): 22
- Immunopositivity of MHC II peptide (T cell responses): QVSVEIEWELQKENS^b

Molecule: SEQ ID NO: 1171 (GVLIFGKQSEKTNV; listed as Arachis hypogaea)
- Score (antigenic score predicted) (I-Ek): 22

Molecule: SEQ ID NO: 1172 (TSADNNNSEYSWTGA; listed as Arachis hypogaea)
- Score (antigenic score predicted) (H2-A^k): 24

Molecule: SEQ ID NO: 1173 (NGRDSLVNPGPAMAS; listed as Arachis hypogaea)
- Score (antigenic score predicted) (H2-A^k): 24

Molecule: SEQ ID NO: 1174 (LEPLGLVEEGAKTAP; listed as Arachis hypogaea)
- Score (antigenic score predicted) (I-Ek): 28
- Immunopositivity of MHC II peptide (T cell responses): LEPLGLVEEGAKTAP^b

Molecule: SEQ ID NO: 1175 (YKYLLGPFNGLDKGEP; listed as Arachis hypogaea)
- Score (antigenic score predicted) (I-Ek): 28
- Immunopositivity of MHC II peptide (T cell responses): YKYLLGPINGUDKGEP^d

Molecule: SEQ ID NO: 1176 (IVADNLQQQNTAPQI; listed as Arachis hypogaea)
- Score (antigenic score predicted) (H2-A^k): 26

Molecule: SEQ ID NO: 1178 (NSYVTPICIADEKEYT; listed as Arachis hypogaea)
- Score (antigenic score predicted) (I-Ek): 24
- Immunopositivity of MHC II peptide (T cell responses): NSYVTPICIADKEYT^c

Molecule: SEQ ID NO: 1179 (YTKVSRYVNWIEKEKT; listed as Arachis hypogaea)
- Score (antigenic score predicted) (I-Ek): 22

Molecule: SEQ ID NO: 1180 (NKWCSCTEGYRLAE; listed as Arachis hypogaea)
- Score (antigenic score predicted) (I-Ek): 22

Molecule: SEQ ID NO: 1181 (YNHDIALLELLEDEPLV; listed as Arachis hypogaea)
- Score (antigenic score predicted) (H2-A^k): 24

Molecule: SEQ ID NO: 1182 (CKDDINSYECWCPFG; listed as Arachis hypogaea)
- Score (antigenic score predicted) (H2-A^k): 18

Molecule: SEQ ID NO: 1183 (QYVDGDQCESNPCLN; listed as Arachis hypogaea)
- Score (antigenic score predicted) (H2-A^k): 18

Molecule: VPQYGYLTL [AAV2 capsid aa 170-178, reference compound]
- predicted binding to the H2-Ld locus [3]: high-scoring

Molecule: YTKVSRYVNWIKEKT [hF.IX aa 444-460, reference compound]
- SYFPEITHI score (I-Ek): 22
